Results taken from patent publication US11542263B2 (NeuroCycle Therapeutics, Inc., priority 2018, dated 2023).
In brackets after ≈: the same amount, converted by molar mass. Like-named read-outs stand apart in the source and are kept apart here.

Assays:
Format in all cases: physicochemical
[1] = pKa measurement by pH metric method; conditions: protonated TPA023B; titrated pH 2 to pH 12, extrapolated to aqueous pKa
Description: 10 mg of TPA023B was used for the pKa measurement.
ISA Water (Ionic Strength Adjusted Water, 0.15 M KCl): Accurately weigh 5.591 g KCl into a 500 mL volumetric flask, dissolve the sample with water, add to volume and mix well. Cosolvent of 60% (v/v) DMSO. Dissolve 2.795 g potassium chloride in 100 mL distilled or deionised water and make up to 250 mL with analytical grade DMSO (Ionic strength adjusted DMSO solution).
Cosolvent of 80% (v/v) MeOH: Dissolve 2.795 g potassium chloride in 50 mL distilled or deionized water and make up to 250 mL with analytical grade MeOH (Ionic strength adjusted MeOH solution).
pKa Determination by pH Metric Method (with or without Co-Solvent):
About 1 mg of sample was weighed into a sample vial, about 1.5 mL of ISA water or 1.5 mL of co-solvent (80% MeOH or 60% DMSO) was added into the vial automatically. The sample solution pre-acidified to pH 2.0 with 0.5 M HCl by the instrument automatically, then titrated three times with base to get pKa value from pH 2 to pH 12, and then extrapolated to get aqueous pKa value. Using this method, the pKa of TPA023B was determined to be 2.19.

[2] = HPLC analysis of degradation of TPA023B with acids in acetone (salt screening)
Description: Salt screening via reaction crystallization was preliminarily conducted using five acids in four solvents or solvent mixtures. […] For p-toluenesulfonic acid, about 20 mg of TPA023B and about 1.1 molar equivalents of the corresponding acid were stirred in about 0.5 mL of each solvent. For controls, about 20 mg of TPA023B was stirred in about 0.5 mL of the corresponding solvent. The resulting mixture was heated to about 50° C. with continuous stirring for about 4 hrs and slowly cooled to about 20-25° C. overnight.
HPLC analysis was conducted on the acetone samples to determine the extent of degradation that occurred, if any.

[3] = Approximate solubility of TPA023B in organic solvents; conditions: thermodynamic from solid; for solubility at 4 h: 25 °C, RT; for solubility: 50° C.
Description: About 25 mg of compound (TPA023B) was added to a 2.0 mL vial containing 0.5 mL of each organic solvent in Table 14, which was then sealed. The mixtures were stirred-mixed at 800 rpm, RT (25° C.) for 4 hours. After that, if the compound was not completely dissolved in the solvent, the mixture was then stirred-mixed at 800 rpm, 50° C. overnight. If the final mixture was clear solution, the solution would be evaporated by vacuum drying oven at 35° C. and the resulted solid would be checked by XRPD. If the final mixture was slurry, the slurry would be centrifuged at 14000 rpm for 5 minutes and then the residues would be dried by vacuum drying oven at 35° C. and checked by XRPD.

[4] = Accelerated stability testing (HPLC assay and purity); conditions: for Assay (%): assay criterion 95%-105%
Description: The stability of Phosphate Polymorphic Form and Free Base Polymorphic Form A were evaluated under accelerated conditions.
Appropriately 2 mg of compounds were accurately weighed into a glass vial, then added diluents (ACN/water, 50/50) and sonicated for 2 minutes to dilute the target concentration of 0.2 mg/mL. The solution was equilibrated to room temperature and then the purity of the compounds was determined by HPLC.

[5] = Solubility in aqueous buffers and simulated fluids, 24 h, HPLC; conditions: for solubility at 24 h: 22.5 °C, thermodynamic from solid, ~20-25° C., read-out: Measured Conc. (solubility); for solubility at 24 h / Measured Conc. (solubility): ~24 h; for Measured Conc. (solubility): LOQ: 0.1 μg/mL
Description: About 2 mg of test article was added to a 1.5 mL vials which contained ˜1.0 mL of one medium listed in Table 7 and Table 8, which was then sealed. The mixtures were stirred at ˜20-25° C. for ˜24 hours. After that, the mixture was filtered by 0.45 μm filter membrane and then the supernatant was analyzed by HPLC.

[6] = Intrinsic dissolution rate in SGF; conditions: 37° C., 100 rpm, linear scope within 2 to 120 min
Description: About 100 mg of Free Base Polymorphic Form A or Phosphate Polymorphic Form A was weighed into the intrinsic dissolution apparatus and the sample compressed for 1 minute with a compression force of ˜4 MPa to form a compacted pellet within the stainless-steel die. All loose powder was removed from the surface of the die. The intrinsic dissolution shaft was connected with the stainless-steel die and tightened so only one surface of the pellet was exposed (surface area=0.496 cm^2). The shaft in the spindle was adjusted to ensure the exposed surface of the compacted tablet was ˜3.8 cm from the bottom of the vessel when lowered. The temperature of chamber water was set at 37° C.±0.5° C., the shaft rotation at 100 rpm and the sampling time points at 2, 5, 10, 15, 30, 45, 60, 120 min. SGF was used as dissolution medium (900 mL). At each time point, solution samples were filtered, and the supernatant was analyzed by HPLC-UV.

[7] = organic solvent or mixture, 1,4-Dioxane
[8] = organic solvent or mixture, THF
[9] = pH 3.0 citrate buffer (100 mM), initial pH 3.05
[10] = pH 4.5 citrate buffer (100 mM), initial pH 4.44
[11] = pH 7.4 PBS (50 mM), initial pH 7.40
[12] = pH 9.0 USP Buffer (50 mM), initial pH 8.94

What does the source list for `CC(C)(O)c1cnn2c(-c3ccc(F)c(-c4c(F)cccc4C#N)c3)cnc2n1` [TPA023B, 2′,6-difluoro-5′-[3-(1-hydroxy-1-methylethyl)-imidazo[1,2-b][1,2,4]triazin-7-yl]biphenyl-2-carbonitrile]?
pKa [1]: ~2.19; Purity (%) ([2]; control in acetone, 50° C. about 4 hrs): 99.33%; Purity (%) ([2]; with H2SO4 in acetone): 98.33%; Purity (%) ([2]; with H3PO4 in acetone): 98.88%; Purity (%) ([2]; with HCl in acetone): 98.61%; Purity (%) ([2]; with methane sulfonic acid in acetone): 98.71%; Purity (%) ([2]; with p-toluene sulfonic acid in acetone): 98.65%; solubility at 4 h [3, 7]: < 50 mg/mL; solubility at 4 h ([3]; organic solvent or mixture, DMF): > 50 mg/mL; solubility at 4 h ([3]; organic solvent or mixture, DMSO): > 50 mg/mL; solubility at 4 h [3, 8]: < 50 mg/mL; solubility ([3]; aqueous with cosolvent or surfactant or cyclodextrin, Acetone/H2O (1/1, v/v)): < 50 mg/mL; solubility ([3]; aqueous with cosolvent or surfactant or cyclodextrin, EtOH/H2O (1/1, v/v)): < 50 mg/mL; solubility [3, 7]: > 50 mg/mL; solubility ([3]; organic solvent or mixture, Acetone): < 50 mg/mL; solubility ([3]; organic solvent or mixture, Acetonitrile (ACN)): < 50 mg/mL; solubility ([3]; organic solvent or mixture, DCM): < 50 mg/mL; solubility ([3]; organic solvent or mixture, EtOAc): < 50 mg/mL; solubility ([3]; organic solvent or mixture, Ethanol): < 50 mg/mL; solubility ([3]; organic solvent or mixture, Heptane): < 50 mg/mL; solubility ([3]; organic solvent or mixture, Isopropanol): < 50 mg/mL; solubility ([3]; organic solvent or mixture, MEK): < 50 mg/mL; solubility ([3]; organic solvent or mixture, MTBE): < 50 mg/mL; solubility ([3]; organic solvent or mixture, Methanol): < 50 mg/mL; solubility [3, 8]: > 50 mg/mL; solubility ([3]; organic solvent or mixture, Toluene): < 50 mg/mL; solubility ([3]; water, H2O): < 50 mg/mL

For `CC(C)(O)c1cnn2c(-c3ccc(F)c(-c4c(F)cccc4C#N)c3)cnc2n1` [Free Base Polymorphic Form A, 2′,6-difluoro-5′-[3-(1-hydroxy-1-methylethyl)-imidazo[1,2-b][1,2,4]triazin-7-yl]biphenyl-2-carbonitrile], which “Purity (%)” value ([4]; 40° C./75% RH (open), 1 week) is on record?
The value was 98.64%.

And the “Assay (%)” value ([4]; 40° C./75% RH (open), 1 week)?
Its value is 102.35%.

And the “Purity (%)” value ([4]; 80° C. (open), 1 week)?
The value was 98.62%.

What about the “Assay (%)” value ([4]; 80° C. (open), 1 week) of the same molecule?
The value was 101.60%.

What about the “Purity (%)” value ([4]; Initial) of the same molecule?
Its value is 98.72%.

What about the “Assay (%)” value ([4]; Initial) of the same molecule?
Its value is 105.51%.

What about the “Purity (%)” value ([4]; Light, ~50 h) of the same molecule?
The value was 98.60%.

And the “Assay (%)” value ([4]; Light, ~50 h)?
Its value is 104.28%.

And the solubility at 24 h ([5]; pH 1.8, simulated gastric fluid, SGF, initial pH 1.80)?
The solubility at 24 h was 0.00138 mg/mL (≈ 0.00353 mM).

And the solubility at 24 h ([5]; simulated gastric fluid, pH 1.2 Hydrochloric Acid Buffer (50 mM), initial pH 1.17)?
Its solubility at 24 h is 0.00977 mg/mL (≈ 0.025 mM).

And the solubility at 24 h ([5]; FaSSIF, initial pH 6.51)?
The solubility at 24 h was 0.00211 mg/mL (≈ 0.00539 mM).

And the solubility at 24 h ([5]; FeSSIF, initial pH 5.00)?
The solubility at 24 h was 0.00963 mg/mL (≈ 0.0246 mM).

What about the solubility at 24 h ([5]; Purified water, initial pH 7.02, target 2 mg/mL) of the same molecule?
The solubility at 24 h was 0.00014 mg/mL (≈ 0.000358 mM).

What about the “pH value of supernatant” value ([5]; FaSSIF, initial pH 6.51) of the same molecule?
Its value is 6.50.

And the “pH value of supernatant” value ([5]; FeSSIF, initial pH 5.00)?
The value was 5.02.

What about the “pH value of supernatant” value ([5]; Purified water, initial pH 7.02) of the same molecule?
The value was 8.73.

And the “pH value of supernatant” value ([5]; SGF, initial pH 1.80)?
Its value is 1.86.

And the “pH value of supernatant” value ([5]; pH 1.2 Hydrochloric Acid Buffer (50 mM), initial pH 1.17)?
Its value is 1.12.

What about the “pH value of supernatant” value [5, 9] of the same molecule?
The value was 3.00.

And the “Measured Conc. (solubility)” value [5, 9]?
The value was “<LOQ”.

What about the “pH value of supernatant” value [5, 10] of the same molecule?
The value was 4.45.

And the “Measured Conc. (solubility)” value [5, 10]?
Its value is “<LOQ”.

What about the “pH value of supernatant” value [5, 11] of the same molecule?
Its value is 7.42.

What about the “Measured Conc. (solubility)” value [5, 11] of the same molecule?
The value was “<LOQ”.

And the “pH value of supernatant” value [5, 12]?
The value was 8.98.

And the “Measured Conc. (solubility)” value [5, 12]?
The value was “<LOQ”.

And the intrinsic dissolution rate [6]?
Its intrinsic dissolution rate is 5×10^−5 mg cm^2 min-t.
